From patent US11739100B2, “2,3-dihydro-1h-imidazo{1,2-a}pyrimidin-5-one and this 1,2,3,4-tetrahydropyrimido{1,2-a}pyrimidin-6-one derivatives comprising a substituted morpholine, preparation thereof and pharmaceutical use thereof” (SANOFI, priority 2012, dated 2023)

Biological target: T1, recombinant Vps34 (Homo sapiens, UniProt Q8NEB9)
T1 construct: purchased Invitrogen PV5126
Test: Phosphorylation of phosphatidylinositol (PI) by Vps34 in vitro, ADP detected by TR-FRET (HTRF Transcreener ADP)
Type: biochemical
Conditions: 10 μM ATP, 55 μg/ml PI, approximately 3 nM Vps34, 1 hour at ambient temperature; absolute IC50, mean of two independent experiments; read-out: IC50 activity range

T1 sequence (Q8NEB9 whole entry): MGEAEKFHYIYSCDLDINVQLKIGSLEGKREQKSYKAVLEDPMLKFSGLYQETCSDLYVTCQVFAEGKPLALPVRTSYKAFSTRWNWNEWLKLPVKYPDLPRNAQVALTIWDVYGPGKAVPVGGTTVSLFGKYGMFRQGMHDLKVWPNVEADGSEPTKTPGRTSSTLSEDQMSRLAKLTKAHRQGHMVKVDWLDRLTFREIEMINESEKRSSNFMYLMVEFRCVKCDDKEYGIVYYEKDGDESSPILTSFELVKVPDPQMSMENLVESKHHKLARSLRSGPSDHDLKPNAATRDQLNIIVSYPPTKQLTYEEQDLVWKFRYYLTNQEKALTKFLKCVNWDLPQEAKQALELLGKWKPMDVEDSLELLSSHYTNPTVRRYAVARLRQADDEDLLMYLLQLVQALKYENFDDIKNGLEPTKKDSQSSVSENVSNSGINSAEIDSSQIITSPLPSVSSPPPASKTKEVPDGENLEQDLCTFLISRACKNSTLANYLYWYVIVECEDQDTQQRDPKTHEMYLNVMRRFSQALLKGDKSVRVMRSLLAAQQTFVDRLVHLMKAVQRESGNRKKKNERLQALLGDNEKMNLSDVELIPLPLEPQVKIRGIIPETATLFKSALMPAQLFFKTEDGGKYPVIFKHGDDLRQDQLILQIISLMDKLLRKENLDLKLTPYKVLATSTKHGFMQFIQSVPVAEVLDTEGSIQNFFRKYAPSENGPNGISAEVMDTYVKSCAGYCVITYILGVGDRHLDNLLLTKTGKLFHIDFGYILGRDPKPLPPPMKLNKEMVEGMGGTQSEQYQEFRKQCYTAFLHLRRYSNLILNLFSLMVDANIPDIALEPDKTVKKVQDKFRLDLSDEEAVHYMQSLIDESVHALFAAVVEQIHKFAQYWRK

| IC50 | Compound |
| --- | --- |
| < 10 nM | Cc1noc(CN2c3nc(N4CCOC[C@H]4C)c(F)c(=O)n3CC[C@H]2C(F)(F)F)n1 [Example 19, (S)-3-Fluoro-2-((R)-3-methylmorpholin-4-yl)-9-(3-methyl-[1,2,4]oxadiazol-5-yl-methyl)-8-trifluoromethyl-6,7,8,9-tetrahydro-pyrimido[1,2-a]-pyrimidin-4-one] |
| 10 to 100 nM | CC1CN(c2nc3n(c(=O)c2F)CC[C@@H](C(F)(F)F)N3CC(=O)C2CC2)CCO1 (single isomer, unassigned) [Example 322] |
| 10 to 100 nM | C[C@@H]1COCCN1c1cc(=O)n2c(n1)N(CC(=O)C1CCNCC1)[C@H](C(F)(F)F)CC2 [Example 265, (S)-2-((R)-3-Methyl-morpholin-4-yl)-9-(2-oxo-2-piperidin-4-yl-ethyl)-8-trifluoromethyl-6,7,8,9-tetrahydro-pyrimido[1,2-a]-pyrimidin-4-one] |
| < 10 nM | C[C@@H]1COCCN1c1cc(=O)n2c(n1)N(C/C(=N\O)C1CC1)[C@H](C(F)(F)F)CC2 (single isomer, unassigned) [Example 304] |
| < 10 nM | C[C@@H]1COCCN1c1nc2n(c(=O)c1F)CC[C@@H](C(F)(F)F)N2c1ccc(C2CC2)nc1 [Example 43, (S)-9-(6-Cyclopropyl-pyridin-3-yl)-3-fluoro-2-((R)-3-methyl-morpholin-4-yl)-8-trifluoromethyl-6,7,8,9-tetrahydro-pyrimido[1,2-a]-pyrimidin-4-one] |
| < 10 nM | C[C@@H]1COCCN1c1cc(=O)n2c(n1)N(Cc1ccnn1C(F)F)[C@](C)(C(F)(F)F)CC2 [Example 214, (S)-9-(2-Difluoromethyl-2H-pyrazol-3-ylmethyl)-8-methyl-2-((R)-3-methylmorpholin-4-yl)-8-trifluoromethyl-6,7,8,9-tetrahydro-pyrimido[1,2-a]-pyrimidin-4-one] |
| < 10 nM | C[C@@H]1COCCN1c1cc(=O)n2c(n1)N(CC(=O)N1CCCO1)[C@H](C(F)(F)F)CC2 [Example 319, (S)-9-(2-Isoxazolidin-2-yl-2-oxoethyl)-2-((R)-3-methyl-morpholin-4-yl)-8-trifluoromethyl-6,7,8,9-tetrahydropyrimido-[1,2-a]pyrimidin-4-one] |
| < 10 nM | Cc1nc(CN2CC[C@H](C(F)(F)F)n3c2nc(N2CCOC[C@H]2C)c(F)c3=O)no1 [Example 21, (R)-3-Fluoro-2-((R)-3-methylmorpholin-4-yl)-9-(5-methyl-[1,2,4]oxadiazol-3-yl-methyl)-6-trifluoromethyl-6,7,8,9-tetrahydro-pyrimido[1,2-a]-pyrimidin-4-one] |
| < 10 nM | CC(C)CCC(=O)CN1c2nc(N3CCOC[C@H]3C)cc(=O)n2CC[C@H]1C(F)(F)F [Example 290, (S)-2-((R)-3-Methyl-morpholin-4-yl)-9-(5-methyl-2-oxo-hexyl)-8-trifluoromethyl-6,7,8,9-tetrahydro-pyrimido[1,2-a]-pyrimidin-4-one] |
| < 10 nM | C[C@@H]1COCCN1c1cc(=O)n2c(n1)N(CC(C)(C)O)[C@H](C(F)(F)F)CC2 [Example 84, (S)-9-(2-Hydroxy-2-methylpropyl)-2-((R)-3-methylmorpholin-4-yl)-8-trifluoromethyl-6,7,8,9-tetrahydro-pyrimido[1,2-a]-pyrimidin-4-one] |
| < 10 nM | C[C@@H]1COC[C@@H](C)N1c1cc(=O)n2c(n1)N(c1ccnc(Cl)c1)[C@H](C(F)(F)F)CC2 [Example 159, (S)-9-(2-Chloro-pyridin-4-yl)-2-((3R,5R)-3,5-dimethyl-morpholin-4-yl)-8-trifluoromethyl-6,7,8,9-tetrahydro-pyrimido[1,2-a]-pyrimidin-4-one] |
| < 10 nM | C[C@@H]1COCCN1c1nc2n(c(=O)c1F)C[C@@](C)(C(F)(F)F)N2Cc1ccnc(Cl)c1 [Example 184, (S)-1-(2-Chloro-pyridin-4-ylmethyl)-6-fluoro-2-methyl-7-((R)-3-methylmorpholin-4-yl)-2-trifluoromethyl-2,3-dihydro-1H-imidazo[1,2-a]-pyrimidin-5-one] |
| 10 to 100 nM | C[C@@H]1COCCN1c1cc(=O)n2c(n1)N(Cc1cnco1)CC[C@@H]2C(F)(F)F [Example 117, (R)-2-((R)-3-Methyl-morpholin-4-yl)-9-oxazol-5-ylmethyl-6-trifluoromethyl-6,7,8,9-tetrahydro-pyrimido[1,2-a]-pyrimidin-4-one] |
| < 10 nM | COC(=O)CN1c2nc(N3CCOC[C@H]3C)cc(=O)n2CC[C@H]1C(F)(F)F [Example 262, [(S)-8-((R)-3-Methyl-morpholin-4-yl)-6-oxo-2-trifluoromethyl-3,4-dihydro-2H,6H-pyrimido[1,2-a]-pyrimidin-1-yl]acetic acid methyl ester] |
| < 10 nM | COc1cc(N2c3nc(N4CCOC[C@H]4C)cc(=O)n3CC[C@H]2C(F)(F)F)ccn1 [Example 80, (S)-9-(2-Methoxy-pyridin-4-yl)-2-((R)-3-methylmorpholin-4-yl)-8-trifluoromethyl-6,7,8,9-tetrahydro-pyrimido[1,2-a]-pyrimidin-4-one] |
| < 10 nM | C[C@@H]1COCCN1c1nc2n(c(=O)c1F)[C@@H](C(F)(F)F)CCN2CC(=O)c1ccccn1 [Example 135, (R)-3-Fluoro-2-((R)-3-methylmorpholin-4-yl)-9-(2-oxo-2-pyridin-2-ylethyl)-6-trifluoromethyl-6,7,8,9-tetrahydro-pyrimido[1,2-a]-pyrimidin-4-one] |
| < 10 nM | O=C(CN1c2nc(N3CC4CCC(C3)O4)cc(=O)n2CC[C@H]1C(F)(F)F)c1ccccc1 [Example 163, (S)-2-(8-Oxa-3-aza-bicyclo[3.2.1]oct-3-yl)-9-(2-oxo-2-phenyl-ethyl)-8-trifluoromethyl-6,7,8,9-tetrahydro-pyrimido[1,2-a]-pyrimidin-4-one] |
| > 100 nM | O=c1cc(N2CCOCC2CO)nc2n1CC[C@@H](C(F)(F)F)N2c1cc(F)cc(F)c1 (single isomer, unassigned) [Example 176] |
| < 10 nM | C[C@@H]1COCCN1c1nc2n(c(=O)c1F)[C@@H](C(F)(F)F)CCN2c1ccc(OC(F)F)nc1 [Example 127, (R)-9-(6-Difluoromethoxy-pyridin-3-yl)-3-fluoro-2-((R)-3-methyl-morpholin-4-yl)-6-trifluoromethyl-6,7,8,9-tetrahydro-pyrimido[1,2-a]-pyrimidin-4-one] |
| < 10 nM | C[C@@H]1COCCN1c1nc2n(c(=O)c1F)CC[C@@H](C(F)(F)F)N2CC(=O)c1ncccc1F [Example 59, (S)-3-Fluoro-9-[2-(3-fluoropyridin-2-yl)-2-oxoethyl]-2-((R)-3-methylmorpholin-4-yl)-8-trifluoromethyl-6,7,8,9-tetrahydro-pyrimido[1,2-a]-pyrimidin-4-one] |
| 10 to 100 nM | Cc1nc(CN2c3nc(N4CC5CCC(C4)O5)c(F)c(=O)n3CC[C@H]2C(F)(F)F)no1 [Example 275, (S)-3-Fluoro-9-(5-methyl-[1,2,4]oxadiazol-3-yl-methyl)-2-(8-oxa-3-azabicyclo[3.2.1]oct-3-yl)-8-trifluoromethyl-6,7,8,9-tetrahydro-pyrimido[1,2-a]-pyrimidin-4-one] |
| < 10 nM | C[C@@H]1COCCN1c1nc2n(c(=O)c1F)CC[C@@H](C(F)(F)F)N2CC(=O)N1CCCCO1 [Example 317, (S)-3-Fluoro-2-((R)-3-methylmorpholin-4-yl)-9-(2-[1,2]oxazinan-2-yl-2-oxoethyl)-8-trifluoromethyl-6,7,8,9-tetrahydropyrimido-[1,2-a]pyrimidin-4-one] |
